The text below walks through data of ChEMBL document CHEMBL1201862, “PubChem BioAssay data set” (2004).

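Values below derive from 48-hour exposures of cells grown in 96-well plates, with endpoints linearly interpolated between the two concentrations bracketing the appropriate inhibition level. GI50 is the concentration that inhibits growth by half.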 Active and inactive are the calls of the source. Rule as the data show it: active = GI50 up to about 1.1 µM and inactive = higher. A value given as a limit tells only on which side of the number the result lay.

Test systems include A549; DMS-273; KM-20L2; MOLT-4; Malme-3M; NCI-H522; OVCAR-5; OVCAR-8; CAKI-1; MCF7; NCI/ADR-RES; BT-549; DU-145; Hs-578T; MDA-MB-231; MDA-MB-435; MDA-N; PC-3; SR; T47D.
What all share (assay): NCI tumour cell line growth inhibition, 48 h

In the case of `Cc1cn(C2CC(O)C(CO)C2C)c(=O)[nH]c1=O` (stereo not drawn), the GI50 in the experiment on A549, in the experiment with DMS-273, in the experiment on KM-20L2, with MOLT-4, with Malme-3M and in the experiment with NCI-H522 was > 100 µM (inactive) in each case. The GI50 in the experiment with OVCAR-5 and in the experiment on OVCAR-8 was > 100 µM (inactive) in each case.
Regarding `CCNc1cnc2c(n1)c(=O)n(C)c(=O)n2C`, the GI50 in the experiment with A549, in the experiment on CAKI-1, with DMS-273, with KM-20L2, in the experiment on MOLT-4 and in the experiment on Malme-3M was > 100 µM (inactive) throughout. Further, the GI50 in the experiment with NCI-H522, in the experiment on OVCAR-5 and with OVCAR-8 was > 100 µM (inactive) throughout.
On to `CC(C)=CCC/C(C)=C/CCC1(C)C=Cc2c(c3ccccc3oc2=O)O1` (stereo not drawn), for which the GI50 was 17.5 µM (inactive) in the experiment with A549; 17.2 µM (inactive) with CAKI-1; 16.9 µM (inactive) in the experiment with DMS-273; 19.4 µM (inactive) in the experiment with KM-20L2; 16.5 µM (inactive) in the experiment on MCF7; 20.6 µM (inactive) in the experiment on MOLT-4. Also, the GI50 with Malme-3M was 27.6 µM (inactive); in the experiment on NCI-H522 it was 14.7 µM (inactive); in the experiment on NCI/ADR-RES it was 16.7 µM (inactive); in the experiment on OVCAR-5, 18.6 µM (inactive); in the experiment with OVCAR-8, 16.7 µM (inactive).
With `CNS(=O)(=O)NN(C)S(=O)(=O)c1ccc(F)cc1`, the GI50 in the experiment with A549, in the experiment on CAKI-1, in the experiment with DMS-273, in the experiment on KM-20L2, with MOLT-4 and with Malme-3M was > 100 µM (inactive) each time. The GI50 with NCI-H522, with OVCAR-5 and in the experiment on OVCAR-8 was > 100 µM (inactive) throughout.
Turning to `COc1cc2c(cc1OC)-c1cc3ccccc3c[n+]1CC2`, the GI50 in the experiment with A549 was > 100 µM (inactive); with BT-549 it was 54.7 µM (inactive); with CAKI-1, > 100 µM (inactive); in the experiment with DU-145, > 100 µM (inactive); in the experiment with Hs-578T, 23.8 µM (inactive); in the experiment on MCF7, 70.3 µM (inactive). Moreover, the GI50 in the experiment on MDA-MB-231 is > 100 µM (inactive); with MDA-MB-435, > 100 µM (inactive); with MDA-N, > 100 µM (inactive); with MOLT-4, > 100 µM (inactive); in the experiment with Malme-3M, 25.4 µM (inactive); in the experiment on NCI-H522, 18.8 µM (inactive). For the same compound, the GI50 in the experiment on NCI/ADR-RES was > 100 µM (inactive); in the experiment on OVCAR-5, > 100 µM (inactive); in the experiment on OVCAR-8, > 100 µM (inactive); in the experiment with PC-3, > 100 µM (inactive); with SR, 68.2 µM (inactive); with T47D, 42.6 µM (inactive).
With `Cc1cc(C)c(C2=NO[C@@H]3C(=O)N(c4ccc(Cc5ccc(N6C(=O)[C@H]7C(c8c(C)cc(C)cc8C)=NO[C@H]7C6=O)cc5)cc4)C(=O)[C@H]23)c(C)c1`, the GI50 in the experiment on A549, with CAKI-1, with DMS-273, in the experiment with KM-20L2, with MOLT-4 and in the experiment on Malme-3M was > 100 µM (inactive) throughout. Also, the GI50 with OVCAR-5 and with OVCAR-8 was > 100 µM (inactive) each time.
Regarding `N#Cc1ccc(-c2nc(C#N)c(N)o2)cc1`, the GI50 with A549, in the experiment on BT-549, with CAKI-1, in the experiment with DU-145, in the experiment with Hs-578T and in the experiment with MCF7 was > 10 µM (inactive) each time. Moreover, the GI50 in the experiment with MDA-MB-231, in the experiment with MDA-MB-435, with MDA-N, with MOLT-4, with Malme-3M and in the experiment on NCI-H522 was > 10 µM (inactive) throughout. Also, the GI50 in the experiment on NCI/ADR-RES, with OVCAR-8, with PC-3, in the experiment on SR and in the experiment with T47D was > 10 µM (inactive) throughout.
With `Cc1cc(C)n(-c2c(O)ccc(O)c2-n2nc(C)cc2C)n1`, the GI50 in the experiment on A549, in the experiment on CAKI-1, in the experiment with DMS-273, in the experiment on KM-20L2, with MOLT-4 and in the experiment on Malme-3M was > 100 µM (inactive) each time. For the same compound, the GI50 with NCI-H522, in the experiment with OVCAR-5 and with OVCAR-8 was > 100 µM (inactive) throughout.
With `CC1=NC=C(O)c2ccccc2O1`, the GI50 with A549, in the experiment on DMS-273, in the experiment with KM-20L2, in the experiment on MOLT-4, in the experiment with Malme-3M and with OVCAR-8 was > 100 µM (inactive) each time.
With `CSc1cc(-c2cc3ccccc3o2)oc(=O)c1C#N`, the GI50 with A549 was > 100 µM (inactive); in the experiment with CAKI-1, 8.13 µM (inactive); in the experiment with DMS-273 it was > 100 µM (inactive); in the experiment on KM-20L2, > 100 µM (inactive); with MOLT-4, > 100 µM (inactive); with Malme-3M, 3.6 µM (inactive). Besides, the values for the GI50 in the experiment on OVCAR-5, in the experiment on OVCAR-8 and in the experiment with SR were 12.2 µM (inactive), > 100 µM (inactive) and 15.5 µM (inactive), respectively.
In the case of `CCN(CC)/[N+]([O-])=N/OC`, the GI50 in the experiment with A549, with DMS-273, in the experiment with KM-20L2, with MOLT-4, with NCI-H522 and in the experiment on OVCAR-5 was > 100 µM (inactive) each time. Moreover, the GI50 in the experiment on OVCAR-8 and with SR was > 100 µM (inactive) in each case.
Regarding `Oc1ccc2ccccc2c1/N=N/c1cccc2ccccc12`, the GI50 was > 100 µM (inactive) with A549; > 100 µM (inactive) with BT-549; > 100 µM (inactive) in the experiment on CAKI-1; > 100 µM (inactive) with DU-145; 21.1 µM (inactive) in the experiment with Hs-578T; > 100 µM (inactive) in the experiment with MCF7. Besides, the GI50 in the experiment on MDA-MB-231 was 49.9 µM (inactive); in the experiment on MDA-MB-435, > 100 µM (inactive); in the experiment on MDA-N, > 100 µM (inactive); in the experiment with MOLT-4 it was > 100 µM (inactive); with Malme-3M it was 91.6 µM (inactive); with NCI-H522 it was 52.4 µM (inactive). Also, the GI50 was > 100 µM (inactive) in the experiment on NCI/ADR-RES; > 100 µM (inactive) in the experiment on OVCAR-5; 44.1 µM (inactive) with OVCAR-8; > 100 µM (inactive) in the experiment with PC-3; > 100 µM (inactive) in the experiment with SR; > 100 µM (inactive) in the experiment with T47D.
For the compound `CC1(C)O[C@@H](C[C@]2(C#N)C[C@H](CCl)OC(C)(C)O2)C[C@@H](C#N)O1`, the GI50 in the experiment with A549, with CAKI-1, in the experiment with DMS-273, with KM-20L2, in the experiment with MOLT-4 and in the experiment on Malme-3M was > 100 µM (inactive) throughout. In addition, the GI50 in the experiment with NCI-H522, in the experiment on OVCAR-5, in the experiment on OVCAR-8 and with SR was > 100 µM (inactive) throughout.
As for `O=C1C(=O)c2ccccc2C=C1[N+](=O)[O-]`, the GI50 in the experiment with A549 is > 100 µM (inactive); in the experiment with BT-549 it was > 100 µM (inactive); in the experiment on CAKI-1, 87.9 µM (inactive); in the experiment on DU-145 it was 49 µM (inactive); with Hs-578T it was 57.1 µM (inactive); in the experiment with MCF7, 22.9 µM (inactive). The GI50 was 18.1 µM (inactive) in the experiment with MDA-MB-231; 16.8 µM (inactive) in the experiment on MDA-MB-435; 19.7 µM (inactive) in the experiment with MDA-N; 29.3 µM (inactive) in the experiment with MOLT-4; 34.9 µM (inactive) in the experiment on NCI-H522; 23 µM (inactive) in the experiment with NCI/ADR-RES. Besides, the GI50 with OVCAR-5 is > 100 µM (inactive); in the experiment on OVCAR-8, 33.7 µM (inactive); with PC-3, 48.2 µM (inactive); with SR it was 29.4 µM (inactive); with T47D, 32.8 µM (inactive).
As to `C=C1C[C@@H]2C[C@@H](C)CC(O)[C@]2(CCCN)C1O` (stereo partly drawn), the GI50 in the experiment on A549, in the experiment with CAKI-1, in the experiment on DMS-273, in the experiment on KM-20L2, in the experiment on MOLT-4 and in the experiment with Malme-3M was > 100 µM (inactive) each time. Further, the GI50 with NCI-H522, in the experiment with OVCAR-5, in the experiment with OVCAR-8 and with SR was > 100 µM (inactive) each time.
As to `C=C(C)C(=O)O[C@H]1CC2=C[C@@H](C[C@@]3(C)O[C@@H]3[C@H]3OC(=O)C(=C)[C@@H]31)OC2=O` [ELEPHANTOPIN], the GI50 was 7.33 µM (inactive) with A549; 1.86 µM (inactive) with CAKI-1; 2.79 µM (inactive) with DMS-273; 4.69 µM (inactive) with KM-20L2; 1.14 µM (inactive) in the experiment on MCF7; 0.412 µM (active) with MOLT-4. The GI50 in the experiment on Malme-3M is 2.12 µM (inactive); in the experiment with NCI-H522 it was 0.593 µM (active); in the experiment on NCI/ADR-RES it was 1.14 µM (inactive); in the experiment on OVCAR-5, 6.55 µM (inactive); with OVCAR-8, 0.505 µM (active).
